Where “and” joins values, the source holds several entries; their conditions need not be identical. Identical values can stand only once. Like-named read-outs stand apart in the source and are kept apart here.
How the values were obtained:
Parameters in all cases: made in house; host or cells: Saccharomyces cerevisiae FGY217
[1] = target: T1, human SLC35B1 (wild type) (Homo sapiens, UniProt P78383); experiment: STD NMR of nucleotide interaction with SLC35B1 proteoliposomes; assay type: binding; settings: for Total STD amplification factor (STD NMR signal): 500 μM substrate
T1 sequence (P78383 1-322): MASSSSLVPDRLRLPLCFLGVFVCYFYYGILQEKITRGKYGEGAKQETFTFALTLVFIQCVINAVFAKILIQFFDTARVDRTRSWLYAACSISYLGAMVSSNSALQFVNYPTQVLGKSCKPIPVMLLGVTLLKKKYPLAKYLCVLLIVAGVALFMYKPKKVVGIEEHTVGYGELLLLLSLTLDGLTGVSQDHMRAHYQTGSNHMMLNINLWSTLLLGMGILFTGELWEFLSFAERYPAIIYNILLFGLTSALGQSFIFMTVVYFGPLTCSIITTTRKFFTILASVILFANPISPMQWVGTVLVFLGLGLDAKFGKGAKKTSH

[2] = target: T1, human SLC35B1 (wild type); experiment: Uptake of [3H]ATP or [3H]ADP into nucleotide-preloaded SLC35B1 proteoliposomes; assay type: biochemical; settings: for Single time point (1 min) uptake of [3H]-ADP by proteoliposomes preloaded with the nucleotide: preload 1 mM of the labelled nucleotide; for radiolabelled nucleotide uptake into proteoliposomes preloaded with the named nucleotide (individual replicates; ATP-loaded about 100): 2 minutes, sheet ED 6G, internal (preloaded) nucleotide as labelled; for [3H]ADP import with nucleotide preloading, relative to ATP preloading: liposomes preloaded with 1 mM nucleotide
[3] = target: T1, human SLC35B1 (wild type); experiment: IC50 for competitive inhibition of [3H]ADP uptake in proteoliposomes; assay type: biochemical; settings: for IC50: wild-type SLC35B1 proteoliposomes
[4] = target: T1, human SLC35B1 (wild type); experiment: Competitive uptake assay: [3H]ADP uptake with 1 mM cold nucleotide; assay type: biochemical; settings: for Normalized SLC35B1-mediated uptake of [3H]ADP in competition with cold nucleotide: 1 mM external cold nucleotide, proteoliposomes preloaded with 1 mM ATP; for [3H]ADP uptake in the presence of cold competitor nucleotide (individual replicates; no-competitor control about 100): competitor 1mM, sheet ED 6F, SLC35B1 proteoliposomes
[5] = target: T1, human SLC35B1 (wild type); assay type: binding; settings: for ΔTm, individual titrations (source data) / ΔTm (average melting temperature increase): 1 mM nucleotide; for ΔTm, individual titrations (source data): wild-type SLC35B1–GFP; for ΔTm (average melting temperature increase): purified wild-type SLC35B1–GFP; for GFP fluorescence after heating (source data Fig 1B): 1 mM substrate
[6] = external cold nucleotide 100 uM

Structure (SMILES): Nc1ncnc2c1ncn2[C@@H]1O[C@H](COP(=O)(O)OP(=O)(O)NP(=O)(O)O)[C@@H](O)[C@H]1O [AMP–PNP, adenylyl imidodiphosphate]
- 1H integral (off-resonance spectrum) [1]: 2.67E+09
- STD integral [1]: 3.83E+08
- Total STD amplification factor (STD NMR signal) [1]: equivalent
- Total STD amplification factor (STD NMR signal) ([1]; listed as AMP-PNP): 7.167
- Single time point (1 min) uptake of [3H]-ADP by proteoliposomes preloaded with the nucleotide [2]: equivalent
- Single time point (1 min) uptake of [3H]-ADP by proteoliposomes preloaded with the nucleotide ([2]; listed as AMP-PNP): 7.11 and 6.164 and 6.553
- Normalized [3H]-ADP uptake activity (IC50 curve) ([3]; external cold nucleotide 0.01 uM, listed as ANP-PNP): 99.81 and 108.605 and 100.75 and 104.879 and 96.5643 and 94.0286
- Normalized [3H]-ADP uptake activity (IC50 curve) ([3]; external cold nucleotide 0.1 uM, listed as ANP-PNP): 114.525 and 102.005 and 84.315 and 93.8643 and 84.5 and 91.8286
- Normalized [3H]-ADP uptake activity (IC50 curve) ([3]; external cold nucleotide 1 uM, listed as ANP-PNP): 100.22 and 103.765 and 80.9 and 74.0571 and 74.9429

Structure (SMILES): Nc1ccn([C@@H]2O[C@H](COP(=O)(O)OP(=O)(O)OP(=O)(O)O)[C@@H](O)[C@H]2O)c(=O)n1 [CTP, cytidine triphosphate]
- Normalized SLC35B1-mediated uptake of [3H]ADP in competition with cold nucleotide [4]: strong competition
- [3H]ADP uptake in the presence of cold competitor nucleotide (individual replicates; no-competitor control about 100) [4]: 12.014 and 11.0419 and 12.1535 and 17.168 and 20.672 and 19.484
- ΔTm, individual titrations (source data) [5]: 2.66 and 3.39 and 2.37
- radiolabelled nucleotide uptake into proteoliposomes preloaded with the named nucleotide (individual replicates; ATP-loaded about 100) [2]: 34.7169 and 32.8215 and 35.0431 and 28.1 and 30.3083 and 22.2
- [3H]ADP import with nucleotide preloading, relative to ATP preloading [2]: approximately 30%
- Normalized [3H]-ADP uptake activity (IC50 curve) ([3]; external cold nucleotide 0.1 uM): 103.844 and 97.7104 and 98.4453
- Normalized [3H]-ADP uptake activity (IC50 curve) ([3]; external cold nucleotide 1 uM): 95.8764 and 97.0509 and 95.3887
- Normalized [3H]-ADP uptake activity (IC50 curve) ([3]; external cold nucleotide 10 uM): 67.7481 and 70.5094 and 62.095
- Normalized [3H]-ADP uptake activity (IC50 curve) [3, 6]: 15.0773 and 20.2633 and 19.2811
- IC50 [3]: 21 µM

Structure (SMILES): O=c1ccn([C@@H]2O[C@H](COP(=O)(O)OP(=O)(O)O)[C@@H](O)[C@H]2O)c(=O)[nH]1 [UDP, uridine diphosphate]
- Normalized SLC35B1-mediated uptake of [3H]ADP in competition with cold nucleotide [4]: more effective at competition
- [3H]ADP uptake in the presence of cold competitor nucleotide (individual replicates; no-competitor control about 100) [4]: 0.8481 and 1.885 and 1.122 and 21.524 and 20.444 and 14.96

Structure (SMILES): Nc1ncnc2c1ncn2[C@@H]1O[C@H](COP(=O)(O)O)[C@@H](O)[C@H]1O [AMP, adenosine monophosphate]
- ΔTm (average melting temperature increase) [5]: 1.1 °C
- ΔTm, individual titrations (source data) [5]: 1.3 and 1.29 and 0.78
- GFP fluorescence after heating (source data Fig 1B) ([5]; temperature 4): 106.601 and 104.432 and 95.3539 and 89.0072 and 98.5673 and 95.7555
- GFP fluorescence after heating (source data Fig 1B) ([5]; temperature 10): 120.178 and 88.2039 and 92.06 and 93.2651
- GFP fluorescence after heating (source data Fig 1B) ([5]; temperature 20): 106.039 and 98.5673 and 92.7027 and 90.0516 and 90.7747 and 95.3539
- GFP fluorescence after heating (source data Fig 1B) ([5]; temperature 30): 90.132 and 77.6476 and 78.8286 and 77.1736 and 79.5837 and 81.6163
- GFP fluorescence after heating (source data Fig 1B) ([5]; temperature 40): 21.7011 and 19.6043 and 15.5232 and 15.3143 and 15.5553 and 16.68
- GFP fluorescence after heating (source data Fig 1B) ([5]; temperature 50): 5.771 and 5.947 and 3.195 and 3.312 and 3.387 and 3.526

Structure (SMILES): Nc1ncnc2c1ncn2[C@@H]1O[C@H](COP(=O)(O)OP(=O)(O)OP(=O)(O)O)[C@@H](O)[C@H]1O [[^3H]ATP]
- One-minute uptake of [3H]ATP by SLC35B1 proteoliposomes ([2]; Unloaded (preloaded with buffer)): 0.4851

Structure (SMILES): Nc1ccn([C@@H]2O[C@H](COP(=O)(O)OP(=O)(O)O)[C@@H](O)[C@H]2O)c(=O)n1 [CDP]
- Normalized SLC35B1-mediated uptake of [3H]ADP in competition with cold nucleotide [4]: more effective at competition
- [3H]ADP uptake in the presence of cold competitor nucleotide (individual replicates; no-competitor control about 100) [4]: 1.97 and 2.619 and 2.963 and 13.22 and 12.328 and 14.044

Structure (SMILES): O=c1ccn([C@@H]2O[C@H](CO[P@@](=O)(O)O[P@@](=O)(O)OP(=O)(O)O)[C@@H](O)[C@H]2O)c(=O)[nH]1 (stereo in doubt) [UTP, uridine triphosphate]
- Normalized SLC35B1-mediated uptake of [3H]ADP in competition with cold nucleotide [4]: strong competition
- [3H]ADP uptake in the presence of cold competitor nucleotide (individual replicates; no-competitor control about 100) [4]: 11.6037 and 12.7556 and 12.0037 and 16.836 and 18.152 and 16.556
- radiolabelled nucleotide uptake into proteoliposomes preloaded with the named nucleotide (individual replicates; ATP-loaded about 100) [2]: 26.76 and 31.4277 and 36.8954 and 31.1375 and 33.6917 and 28.9625
- [3H]ADP import with nucleotide preloading, relative to ATP preloading [2]: approximately 30%
- Normalized [3H]-ADP uptake activity (IC50 curve) ([3]; external cold nucleotide 0.1 uM, 0.1 µM): 98.9492 and 98.9864
- activity at 0.1 µM ([3]; external cold nucleotide 0.1 uM, read-out: Normalized [3H]-ADP uptake activity (IC50 curve)): 102%
- Normalized [3H]-ADP uptake activity (IC50 curve) ([3]; external cold nucleotide 1 uM, 1 µM): 96.2847 and 99.2915
- activity at 1 µM ([3]; external cold nucleotide 1 uM, read-out: Normalized [3H]-ADP uptake activity (IC50 curve)): 90.8%
- Normalized [3H]-ADP uptake activity (IC50 curve) ([3]; external cold nucleotide 10 uM, 10 µM): 69.0203 and 73.0881
- activity at 10 µM ([3]; external cold nucleotide 10 uM, read-out: Normalized [3H]-ADP uptake activity (IC50 curve)): 65%
- Normalized [3H]-ADP uptake activity (IC50 curve) ([3]; external cold nucleotide 100 uM, 100 µM): 29.139 and 27.9119
- activity at 100 µM ([3]; external cold nucleotide 100 uM, read-out: Normalized [3H]-ADP uptake activity (IC50 curve)): 28.6%

Structure (SMILES): Nc1nc2c(ncn2[C@@H]2O[C@H](COP(=O)(O)OP(=O)(O)OP(=O)(O)O)[C@@H](O)[C@H]2O)c(=O)[nH]1 [GTP]
- 1H integral (off-resonance spectrum) [1]: 4.09E+10
- STD integral [1]: 2.66E+09
- Total STD amplification factor (STD NMR signal) [1]: low STD NMR signals
- Normalized SLC35B1-mediated uptake of [3H]ADP in competition with cold nucleotide [4]: only weak competition
- [3H]ADP uptake in the presence of cold competitor nucleotide (individual replicates; no-competitor control about 100) [4]: 82.2279 and 86.0047 and 83.9395 and 58.276 and 54.036 and 48.82
- ΔTm (average melting temperature increase) [5]: poor thermostabilization
- ΔTm, individual titrations (source data) [5]: 1.35 and 2.4 and 1.45
- Normalized [3H]-ADP uptake activity (IC50 curve) ([3]; external cold nucleotide 1 uM): 88.1 and 101.287 and 103.95
- Normalized [3H]-ADP uptake activity (IC50 curve) ([3]; external cold nucleotide 10 uM): 84.475 and 90.925 and 119.487
- Normalized [3H]-ADP uptake activity (IC50 curve) [3, 6]: 92.075 and 105.213 and 83.1625
- Normalized [3H]-ADP uptake activity (IC50 curve) ([3]; external cold nucleotide 1000 uM): 48.75 and 67.325 and 73.7625
- Normalized [3H]-ADP uptake activity (IC50 curve) ([3]; external cold nucleotide 100000 uM): 2.4125 and 1.7125 and 1.675
- IC50 [3]: 3500 µM

Structure (SMILES): O=c1ccn([C@@H]2O[C@H](COP(=O)(O)OP(=O)(O)OP(=O)(O)O)[C@@H](O)[C@H]2O)c(=O)[nH]1 [UTP, uridine triphosphate]
- IC50 [3]: 29 µM and 29.1 µM

Reference: PMC12267056 (Nature, 2025)
